Test results published in ChEMBL document CHEMBL4507268 (2021).

Assays:
Conditions in all cases: Compound concentration 1.0 uM
[1] = molecular target: Calcium/calmodulin-dependent protein kinase type 1G (Homo sapiens) (UniProt Q96NX5)
[2] = molecular target: Cyclin-dependent kinase 13/Cyclin-K (Homo sapiens) (UniProt Q14004+O75909)
[3] = molecular target: Serine/threonine-protein kinase 35 (Homo sapiens) (UniProt Q8TDR2)
[4] = molecular target: Receptor tyrosine-protein kinase erbB-2 (Homo sapiens) (UniProt P04626)
[5] = molecular target: Tyrosine-protein kinase Fes/Fps (Homo sapiens) (UniProt P07332)
[6] = molecular target: Serine/threonine-protein kinase Nek4 (Homo sapiens) (UniProt P51957)
[7] = molecular target: Serine/threonine-protein kinase PAK 1 (Homo sapiens) (UniProt Q13153)
[8] = molecular target: Platelet-derived growth factor receptor alpha (Homo sapiens) (UniProt P16234)
Chain of Platelet-derived growth factor receptor alpha (Homo sapiens) (P16234 whole entry): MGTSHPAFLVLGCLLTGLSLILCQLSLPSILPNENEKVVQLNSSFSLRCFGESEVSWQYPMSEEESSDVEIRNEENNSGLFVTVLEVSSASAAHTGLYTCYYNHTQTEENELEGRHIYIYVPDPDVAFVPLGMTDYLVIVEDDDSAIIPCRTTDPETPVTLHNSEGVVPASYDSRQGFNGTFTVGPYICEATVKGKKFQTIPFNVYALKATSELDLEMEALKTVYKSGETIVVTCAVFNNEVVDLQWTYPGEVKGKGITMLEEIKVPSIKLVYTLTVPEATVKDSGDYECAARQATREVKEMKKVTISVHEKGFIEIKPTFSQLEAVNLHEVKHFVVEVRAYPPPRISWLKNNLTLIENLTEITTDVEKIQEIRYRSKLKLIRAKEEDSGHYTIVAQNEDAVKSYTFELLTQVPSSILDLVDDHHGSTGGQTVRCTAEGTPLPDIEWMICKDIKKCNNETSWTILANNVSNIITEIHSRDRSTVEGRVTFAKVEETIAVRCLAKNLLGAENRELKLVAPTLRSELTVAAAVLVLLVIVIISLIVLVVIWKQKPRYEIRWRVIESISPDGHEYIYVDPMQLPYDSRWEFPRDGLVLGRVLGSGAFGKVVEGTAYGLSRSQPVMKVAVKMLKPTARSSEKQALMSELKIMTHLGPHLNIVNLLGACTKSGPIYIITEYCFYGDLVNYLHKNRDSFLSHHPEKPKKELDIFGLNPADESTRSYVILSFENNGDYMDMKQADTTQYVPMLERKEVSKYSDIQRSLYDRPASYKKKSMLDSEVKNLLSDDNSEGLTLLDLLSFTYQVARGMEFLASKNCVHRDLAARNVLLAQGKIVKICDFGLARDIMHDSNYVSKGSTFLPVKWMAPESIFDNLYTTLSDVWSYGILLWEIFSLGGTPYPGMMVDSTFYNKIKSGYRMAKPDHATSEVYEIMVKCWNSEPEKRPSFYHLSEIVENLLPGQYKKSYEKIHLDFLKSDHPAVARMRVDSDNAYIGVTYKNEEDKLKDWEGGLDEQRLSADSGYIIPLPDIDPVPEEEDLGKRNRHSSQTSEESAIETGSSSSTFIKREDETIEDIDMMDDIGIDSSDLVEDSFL

[9] = molecular target: Platelet-derived growth factor receptor beta (Homo sapiens) (UniProt P09619)
[10] = molecular target: Serine/threonine-protein kinase PLK1 (Homo sapiens) (UniProt P53350)
[11] = molecular target: T1, cAMP-dependent protein kinase catalytic subunit PRKX (Homo sapiens) (UniProt P51817)
T1 sequence (whole entry): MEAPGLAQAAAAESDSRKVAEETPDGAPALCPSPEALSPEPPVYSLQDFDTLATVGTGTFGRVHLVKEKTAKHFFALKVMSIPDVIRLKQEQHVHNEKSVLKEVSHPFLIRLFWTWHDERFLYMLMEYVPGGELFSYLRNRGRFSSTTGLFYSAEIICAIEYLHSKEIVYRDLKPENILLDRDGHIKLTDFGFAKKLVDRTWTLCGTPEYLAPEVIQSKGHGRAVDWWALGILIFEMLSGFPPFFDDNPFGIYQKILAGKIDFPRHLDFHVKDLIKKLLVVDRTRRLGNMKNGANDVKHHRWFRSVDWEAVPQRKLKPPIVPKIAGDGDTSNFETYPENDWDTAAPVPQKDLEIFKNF

[12] = molecular target: Rho-associated protein kinase 1 (Homo sapiens) (UniProt Q13464)
Chain of Rho-associated protein kinase 1 (Homo sapiens) (Q13464 2-1354 limits assumed): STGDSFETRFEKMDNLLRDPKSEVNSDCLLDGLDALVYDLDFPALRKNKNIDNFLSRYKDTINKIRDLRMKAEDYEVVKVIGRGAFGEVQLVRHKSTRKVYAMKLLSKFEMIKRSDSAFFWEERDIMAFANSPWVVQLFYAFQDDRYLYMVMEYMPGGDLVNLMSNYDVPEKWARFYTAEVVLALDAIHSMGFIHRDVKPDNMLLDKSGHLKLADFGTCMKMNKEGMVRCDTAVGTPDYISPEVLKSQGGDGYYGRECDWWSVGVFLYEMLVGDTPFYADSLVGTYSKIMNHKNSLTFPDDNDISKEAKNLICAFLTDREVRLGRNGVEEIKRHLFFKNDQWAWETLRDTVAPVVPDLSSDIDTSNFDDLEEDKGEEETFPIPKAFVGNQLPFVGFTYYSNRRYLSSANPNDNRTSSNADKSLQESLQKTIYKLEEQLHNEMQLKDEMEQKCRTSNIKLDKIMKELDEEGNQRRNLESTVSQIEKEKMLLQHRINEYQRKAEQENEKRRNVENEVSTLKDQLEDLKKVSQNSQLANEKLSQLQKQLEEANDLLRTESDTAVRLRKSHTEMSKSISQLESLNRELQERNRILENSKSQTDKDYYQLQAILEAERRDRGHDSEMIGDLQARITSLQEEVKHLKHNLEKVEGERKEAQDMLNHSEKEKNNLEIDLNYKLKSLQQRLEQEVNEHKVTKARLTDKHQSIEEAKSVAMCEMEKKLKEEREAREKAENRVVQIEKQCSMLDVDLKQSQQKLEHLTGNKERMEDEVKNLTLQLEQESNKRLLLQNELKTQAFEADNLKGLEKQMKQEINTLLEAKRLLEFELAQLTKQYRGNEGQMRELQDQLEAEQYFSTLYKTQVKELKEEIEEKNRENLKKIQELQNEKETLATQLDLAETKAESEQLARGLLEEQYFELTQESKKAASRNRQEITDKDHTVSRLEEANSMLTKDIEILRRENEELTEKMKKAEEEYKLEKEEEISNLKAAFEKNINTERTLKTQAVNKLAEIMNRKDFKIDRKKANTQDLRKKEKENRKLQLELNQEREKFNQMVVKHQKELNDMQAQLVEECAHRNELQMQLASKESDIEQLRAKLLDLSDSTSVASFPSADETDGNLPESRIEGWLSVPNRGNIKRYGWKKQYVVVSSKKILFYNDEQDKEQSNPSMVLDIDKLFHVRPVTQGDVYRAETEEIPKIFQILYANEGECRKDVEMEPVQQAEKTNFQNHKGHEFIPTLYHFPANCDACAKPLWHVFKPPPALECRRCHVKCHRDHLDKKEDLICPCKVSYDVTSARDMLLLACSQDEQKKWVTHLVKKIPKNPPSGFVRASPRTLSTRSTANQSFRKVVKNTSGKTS

[13] = molecular target: T2, Tyrosine-protein kinase receptor TYRO3 (Homo sapiens) (UniProt Q06418)
T2 sequence (whole entry): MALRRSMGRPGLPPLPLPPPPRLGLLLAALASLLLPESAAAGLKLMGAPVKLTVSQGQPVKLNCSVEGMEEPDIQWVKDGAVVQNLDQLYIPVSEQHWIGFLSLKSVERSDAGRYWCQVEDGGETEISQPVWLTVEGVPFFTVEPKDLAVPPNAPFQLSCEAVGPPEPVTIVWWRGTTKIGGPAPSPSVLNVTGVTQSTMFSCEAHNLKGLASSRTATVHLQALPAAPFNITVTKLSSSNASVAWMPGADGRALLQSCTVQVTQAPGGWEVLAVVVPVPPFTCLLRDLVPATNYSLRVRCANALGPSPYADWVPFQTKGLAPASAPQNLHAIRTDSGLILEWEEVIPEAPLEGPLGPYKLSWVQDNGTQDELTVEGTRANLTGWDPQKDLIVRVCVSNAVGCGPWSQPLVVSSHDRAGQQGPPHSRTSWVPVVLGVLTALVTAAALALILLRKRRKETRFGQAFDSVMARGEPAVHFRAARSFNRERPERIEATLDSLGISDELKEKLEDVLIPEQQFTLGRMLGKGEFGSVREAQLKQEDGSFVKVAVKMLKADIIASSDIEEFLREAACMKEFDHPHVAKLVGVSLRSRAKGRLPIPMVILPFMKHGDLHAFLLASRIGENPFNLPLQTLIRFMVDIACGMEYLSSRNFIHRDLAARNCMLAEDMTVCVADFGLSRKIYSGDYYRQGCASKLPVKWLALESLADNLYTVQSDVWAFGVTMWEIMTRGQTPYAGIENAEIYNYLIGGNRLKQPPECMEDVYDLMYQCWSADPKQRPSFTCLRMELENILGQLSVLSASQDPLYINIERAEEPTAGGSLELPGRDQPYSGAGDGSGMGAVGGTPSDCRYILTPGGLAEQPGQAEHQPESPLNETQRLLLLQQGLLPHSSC

[14] = molecular target: Serine/threonine-protein kinase 33 (Homo sapiens) (UniProt Q9BYT3)
[15] = molecular target: Serine/threonine-protein kinase tousled-like 2 (Homo sapiens) (UniProt Q86UE8)
Chain of Serine/threonine-protein kinase tousled-like 2 (Homo sapiens) (Q86UE8 whole entry, looked up): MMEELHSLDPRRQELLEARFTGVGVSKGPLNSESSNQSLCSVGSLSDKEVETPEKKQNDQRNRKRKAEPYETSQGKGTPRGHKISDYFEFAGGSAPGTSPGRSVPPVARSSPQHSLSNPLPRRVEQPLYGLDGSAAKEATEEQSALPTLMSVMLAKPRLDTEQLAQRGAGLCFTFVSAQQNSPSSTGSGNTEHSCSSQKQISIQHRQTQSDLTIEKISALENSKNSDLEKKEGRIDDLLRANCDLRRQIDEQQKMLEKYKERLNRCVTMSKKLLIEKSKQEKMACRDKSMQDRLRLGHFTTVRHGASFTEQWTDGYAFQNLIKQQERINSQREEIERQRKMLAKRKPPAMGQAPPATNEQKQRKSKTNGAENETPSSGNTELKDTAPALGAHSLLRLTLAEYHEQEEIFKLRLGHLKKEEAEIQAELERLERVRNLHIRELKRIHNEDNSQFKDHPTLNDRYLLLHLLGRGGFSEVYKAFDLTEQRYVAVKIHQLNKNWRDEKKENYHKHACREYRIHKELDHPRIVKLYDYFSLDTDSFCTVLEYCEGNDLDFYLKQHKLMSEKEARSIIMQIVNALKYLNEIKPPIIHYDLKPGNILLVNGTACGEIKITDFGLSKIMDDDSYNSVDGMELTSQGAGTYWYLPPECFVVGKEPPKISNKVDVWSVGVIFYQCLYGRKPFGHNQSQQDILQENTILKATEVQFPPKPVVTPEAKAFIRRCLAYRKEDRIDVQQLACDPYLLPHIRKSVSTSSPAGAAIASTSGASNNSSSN

[16] = molecular target: T3, Testis-specific serine/threonine-protein kinase 1 (Homo sapiens) (UniProt Q9BXA7)
T3 sequence (whole entry): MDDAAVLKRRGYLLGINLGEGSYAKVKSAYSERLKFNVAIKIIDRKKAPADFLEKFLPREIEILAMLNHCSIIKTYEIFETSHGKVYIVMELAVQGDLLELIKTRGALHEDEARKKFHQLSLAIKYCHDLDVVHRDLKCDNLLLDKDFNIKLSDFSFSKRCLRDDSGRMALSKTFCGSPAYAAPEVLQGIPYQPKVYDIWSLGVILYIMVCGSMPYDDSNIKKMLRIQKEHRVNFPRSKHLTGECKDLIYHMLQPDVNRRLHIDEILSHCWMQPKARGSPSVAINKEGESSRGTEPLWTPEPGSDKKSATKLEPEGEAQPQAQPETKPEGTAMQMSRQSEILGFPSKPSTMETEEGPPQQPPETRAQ

[17] = molecular target: Tau-tubulin kinase 1 (Homo sapiens) (UniProt Q5TCY1)
Chain of Tau-tubulin kinase 1 (Homo sapiens) (Q5TCY1 whole entry, canonical isoform): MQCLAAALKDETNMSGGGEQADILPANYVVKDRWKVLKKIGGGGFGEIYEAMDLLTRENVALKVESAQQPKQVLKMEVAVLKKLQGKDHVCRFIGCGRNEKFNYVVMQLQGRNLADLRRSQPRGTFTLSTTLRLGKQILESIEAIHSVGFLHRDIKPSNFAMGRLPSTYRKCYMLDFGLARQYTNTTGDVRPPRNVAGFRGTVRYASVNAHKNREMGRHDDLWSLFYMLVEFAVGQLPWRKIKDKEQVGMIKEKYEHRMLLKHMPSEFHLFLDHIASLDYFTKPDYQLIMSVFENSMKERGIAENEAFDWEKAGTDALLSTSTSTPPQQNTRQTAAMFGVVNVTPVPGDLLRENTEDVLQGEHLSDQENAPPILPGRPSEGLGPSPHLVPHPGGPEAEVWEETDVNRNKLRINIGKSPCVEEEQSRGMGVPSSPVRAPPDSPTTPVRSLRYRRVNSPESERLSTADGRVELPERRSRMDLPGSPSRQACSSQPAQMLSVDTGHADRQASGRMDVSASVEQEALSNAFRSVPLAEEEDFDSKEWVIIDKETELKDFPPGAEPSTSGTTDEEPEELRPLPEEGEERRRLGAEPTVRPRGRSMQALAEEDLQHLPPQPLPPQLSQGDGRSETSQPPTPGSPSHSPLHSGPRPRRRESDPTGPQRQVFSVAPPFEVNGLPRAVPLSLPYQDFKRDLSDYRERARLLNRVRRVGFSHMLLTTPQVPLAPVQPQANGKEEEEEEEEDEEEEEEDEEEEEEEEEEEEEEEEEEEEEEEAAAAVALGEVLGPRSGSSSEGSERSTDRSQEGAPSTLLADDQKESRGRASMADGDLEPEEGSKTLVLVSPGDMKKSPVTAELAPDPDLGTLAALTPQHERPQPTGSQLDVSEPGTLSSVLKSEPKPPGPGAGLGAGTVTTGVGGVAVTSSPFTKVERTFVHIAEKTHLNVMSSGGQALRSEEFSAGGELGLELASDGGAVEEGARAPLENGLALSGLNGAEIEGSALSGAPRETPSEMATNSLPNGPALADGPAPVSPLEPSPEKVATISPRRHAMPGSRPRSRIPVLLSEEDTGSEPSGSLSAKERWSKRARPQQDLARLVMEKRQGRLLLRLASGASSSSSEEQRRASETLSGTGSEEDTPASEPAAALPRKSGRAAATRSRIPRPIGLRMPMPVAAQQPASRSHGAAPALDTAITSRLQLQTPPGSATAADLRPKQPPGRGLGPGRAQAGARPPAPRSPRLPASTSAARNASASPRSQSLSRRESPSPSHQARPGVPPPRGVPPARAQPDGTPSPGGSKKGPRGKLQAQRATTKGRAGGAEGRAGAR

[18] = molecular target: Phosphatidylinositol 4,5-bisphosphate 3-kinase catalytic subunit gamma isoform (Homo sapiens) (UniProt P48736)

Measured: % residual kinase activity

Chain of Serine/threonine-protein kinase 35 (Homo sapiens) (Q8TDR2 whole entry): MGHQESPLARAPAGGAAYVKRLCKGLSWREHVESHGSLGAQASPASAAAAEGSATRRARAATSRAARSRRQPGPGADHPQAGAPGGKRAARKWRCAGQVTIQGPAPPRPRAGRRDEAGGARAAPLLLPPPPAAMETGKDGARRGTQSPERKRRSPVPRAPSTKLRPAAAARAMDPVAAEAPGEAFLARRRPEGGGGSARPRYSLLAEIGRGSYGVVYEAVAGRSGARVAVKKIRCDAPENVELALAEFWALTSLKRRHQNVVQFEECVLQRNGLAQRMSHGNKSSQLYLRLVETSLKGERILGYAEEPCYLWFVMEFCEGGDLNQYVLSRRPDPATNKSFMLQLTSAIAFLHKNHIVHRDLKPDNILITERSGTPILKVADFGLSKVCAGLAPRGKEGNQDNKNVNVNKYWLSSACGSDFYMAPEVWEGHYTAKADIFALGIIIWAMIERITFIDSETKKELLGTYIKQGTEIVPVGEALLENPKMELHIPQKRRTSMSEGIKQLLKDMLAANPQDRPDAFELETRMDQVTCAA

CN1CCN(c2cnc3c(C4CCN(C(=O)c5ccc(OC(F)(F)F)cc5N)CC4)ncnc3c2)CC1 [BAY-885]
inactive: [1] 103% | [2] 109% | [3] 116% | [4] 96% | [5] 108% | [6] 114% | [7] 95% | [8] 105% | [9] 107% | [10] 115% | [11] 121% | [12] 112% | [13] 100% | [14] 103% | [15] 98% | [16] 107% | [17] 95% | [18] 100%
